Read-outs that look alike come from different tables or passages of the source.
Tests used:
[1] = Dantrolene sodium solubility with HPBCD and parenteral-compatible co-solvent addition (visual inspection); format: physicochemical; details: for Result (assessed by visual inspection): 7 Mol equivalent HP5 HPBCD solution
Experimental: This experiment was performed to determine the effects of different parenteral-compatible alcohol- and ketone-based co-solvents on dantrolene sodium solubility, in a 7 Mol equivalent HP5 substituted HPBCD solution. The results are shown in Table 2 below; DNa denotes dantrolene sodium.

[2] = Dantrolene sodium solubility in water only solutions of HPBCD (visual inspection); format: physicochemical; details: for solubility: aqueous with cosolvent or surfactant or cyclodextrin; for Maximum concentration of dantrolene sodium that could be dissolved: <2 μm particle size
Experimental: This study was performed to determine the impact of HPBCD on the solubility of dantrolene Sodium. An initial comparison of different HPBCDs was carried out using HP5 and HP7 substituted variants (Cavitron™ W7, Ashland, Inc.), which have a typical degree of substitution (average number of hydroxypropyl groups per cyclodextrin molecule) of 4.1-5.1 and 6.0-8.0 respectively. (Equivalent products, such as Kleptose® HPB (Roquette), which is a low endotoxin burden (<10 IU/g) HP5 substituted β-cyclodextrin with typical molar substitution (i.e. per anhydro glucose subunit) of 0.65 (range 0.58 to 0.68), are also available for commercial scale manufacturing.)
Due to the larger molecular weight of the HP7 variant, more weight of excipient was required to achieve the same molar equivalent concentration compared with the HP5 variant. Overall, HP5 substituted β-cyclodextrin was preferred and it was therefore used for subsequent test formulations.
Further analysis was performed to determine the maximum possible concentration of dantrolene sodium, at different particle sizes, in water only solutions of HP5 substituted β-cyclodextrin. Commercially available samples of dantrolene sodium having particle sizes of <2 μm and <63 μm were tested. […] Results are shown in Table 1 below; DNa denotes dantrolene sodium.

Structure (SMILES): O=C1CN(/N=C/c2ccc(-c3ccc([N+](=O)[O-])cc3)o2)C([O-])=N1.[Na+] [DNa, dantrolene sodium]
- Result (assessed by visual inspection) ([1]; DNa 4.5 mg/mL anhydrous salt equivalent, Benzyl Alcohol 1%): Moderate Excess
- Result (assessed by visual inspection) ([1]; DNa 4.5 mg/mL anhydrous salt equivalent, Ethanol Abs. 1%): Hazy - Small Excess
- Result (assessed by visual inspection) ([1]; DNa 4.5 mg/mL anhydrous salt equivalent, Glycerol 5.18%): Hazy - Small Excess
- Result (assessed by visual inspection) ([1]; DNa 4.5 mg/mL anhydrous salt equivalent, N,N-Dimethyl-formamide 2%): Hazy - Small Excess
- Result (assessed by visual inspection) ([1]; DNa 4.5 mg/mL anhydrous salt equivalent, Polyethylene Glycol 300 (PEG-300) 5%): Hazy - Small Excess
- Result (assessed by visual inspection) ([1]; DNa 4.5 mg/mL anhydrous salt equivalent, Polyethylene Glycol 400 (PEG-400) 5%): Hazy - Small Excess
- Result (assessed by visual inspection) ([1]; DNa 4.5 mg/mL anhydrous salt equivalent, Propylene Glycol 5%): Moderate Excess
- Result (assessed by visual inspection) ([1]; DNa 4.5 mg/mL anhydrous salt equivalent, Tert-Butanol 5%): Large Excess
- Result (assessed by visual inspection) ([1]; DNa 4.5 mg/mL anhydrous salt equivalent, Tetrahydrofuran 2%): Large Excess
- Result (assessed by visual inspection) ([1]; DNa 4.55 mg/mL anhydrous salt equivalent, N-Methyl-pyrrolidone 2, 4, 6%): Hazy - Small Excess
- Result (assessed by visual inspection) ([1]; DNa 4.75 mg/mL anhydrous salt equivalent, Tert-Butanol 5%): Large Excess
- Result (assessed by visual inspection) ([1]; DNa 5.0 mg/mL anhydrous salt equivalent, Benzyl Alcohol 2%): Large Excess
- Result (assessed by visual inspection) ([1]; DNa 5.0 mg/mL anhydrous salt equivalent, Ethanol Abs. 20%): Large Excess
- Result (assessed by visual inspection) ([1]; DNa 5.0 mg/mL anhydrous salt equivalent, Tert-Butanol 10%): Large Excess
- Result (assessed by visual inspection) ([1]; DNa 5.0 mg/mL anhydrous salt equivalent, Tert-Butanol 20%): Large Excess
- Effect of parenteral-compatible alcohol- or ketone-based solvents on dantrolene solubility in the presence of HPBCD ([1]; all 15 of the solvents tested, including PEG 300 and PEG 400): reduced dantrolene solubility
- Result (assessed by visual inspection) ([2]; DNa 4.46 mg/mL anhydrous salt equivalent (5.16 mg/mL hemiheptahydrate equivalent), particle size <2 μm, 7 molar equivalent HP5 HPBCD, water only): Complete solution
- Result (assessed by visual inspection) ([2]; DNa 4.5 mg/mL anhydrous salt equivalent (5.33 mg/mL hemiheptahydrate equivalent), particle size <2 μm, 7 molar equivalent HP5 HPBCD, water only): Complete solution
- Result (assessed by visual inspection) ([2]; DNa 4.5 mg/mL anhydrous salt equivalent (5.35 mg/mL hemiheptahydrate equivalent), particle size <63 μm, 7 molar equivalent HP5 HPBCD, water only): Complete solution
- Result (assessed by visual inspection) ([2]; DNa 4.55 mg/mL anhydrous salt equivalent (5.36 mg/mL hemiheptahydrate equivalent), particle size <2 μm, 7 molar equivalent HP5 HPBCD, water only): Complete solution
- Result (assessed by visual inspection) ([2]; DNa 4.6 mg/mL anhydrous salt equivalent (5.40 mg/mL hemiheptahydrate equivalent), particle size <2 μm, 7 molar equivalent HP5 HPBCD, water only): Slightly Hazy Solution (Incomplete)
- Result (assessed by visual inspection) ([2]; DNa 4.65 mg/mL anhydrous salt equivalent (5.47 mg/mL hemiheptahydrate equivalent), particle size <2 μm, 7 molar equivalent HP5 HPBCD, water only): Hazy Solution (Incomplete)
- Result (assessed by visual inspection) ([2]; DNa 4.75 mg/mL anhydrous salt equivalent (5.58 mg/mL hemiheptahydrate equivalent), particle size <2 μm, 7 molar equivalent HP5 HPBCD, water only): Hazy Solution (Incomplete)
- Result (assessed by visual inspection) ([2]; DNa 4.75 mg/mL anhydrous salt equivalent (5.66 mg/mL hemiheptahydrate equivalent), particle size <63 μm, 7 molar equivalent HP5 HPBCD, water only): Hazy Solution (Incomplete)
- Result (assessed by visual inspection) ([2]; DNa 5.0 mg/mL anhydrous salt equivalent (5.95 mg/mL hemiheptahydrate equivalent), particle size <2 μm, 7 molar equivalent HP5 HPBCD, water only): Hazy Solution (Incomplete)
- solubility ([2]; hemiheptahydrate equivalent, 9 Mol equivalents of HPBCD, HP5 variant, purified water, read-out: Solubility of dantrolene sodium): 8500 µg/mL
- solubility ([2]; hemiheptahydrate equivalent, 9 Mol equivalents of HPBCD, HP7 variant, purified water, read-out: Solubility of dantrolene sodium): 8500 µg/mL
- solubility ([2]; thermodynamic from solid, as anhydrous salt equivalent, <63 μm particle size, 7 molar equivalent HP5 HPBCD, water only, read-out: Solubility (maximum concentration of dantrolene sodium that could be dissolved)): 4500 µg/mL
- Maximum concentration of dantrolene sodium that could be dissolved ([2]; as anhydrous salt equivalent, 7 molar equivalent HP5 HPBCD, water only): 4.55 mg/mL
- Maximum concentration of dantrolene sodium that could be dissolved ([2]; as hemiheptahydrate equivalent, 7 molar equivalent HP5 HPBCD, water only): 5.36 mg/mL
- Solubility (maximum concentration of dantrolene sodium that could be dissolved) ([2]; as hemiheptahydrate equivalent, <63 μm particle size, 7 molar equivalent HP5 HPBCD, water only): 5350 µg/mL

— patent publication US20240245653A1, “PHARMACEUTICAL FORMULATIONS” (SPEPHARM AG, priority 2021, published 2024)
